From patent publication EP2487185A1, “Hexapeptide with improved activity in the repair of cellular DNA of dermal cells” (Clinuvel Pharmaceuticals Limited, priority 2011, dated 2012)
Non-standard residues stand in square brackets, D forms with d. Nle = CCCC[C@H](N)C(=O)O

Experiments:
Format in all cases: cell-based, human
melanocytic strain 1505b = assay: UV-induced generation of hydrogen peroxide (luminol luminescence); conditions: strain 1505b; 1 nM; 105 mJ/cm^2 UV; 0, 30 and 45 minutes after UV
From the text: (§1) With reference to Figs. 10 and 11, melanocytes were irradiated with a bank of FS 20 lamps, with 75% emission in the UVB, and 25% emission in the UVA spectra, with peak emission at 313 nm wavelength. Any emission of UVC rays from the UV source (FS 20 lamps) was blocked by Kodacel filter. Prior to irradiation, the culture medium was replaced by PBS, which was removed after UV exposure, and fresh medium added.
(§2) Melanocytes were irradiated with 105 mJ/cm^2 UV, and treated immediately while in PBS with 0, 1 nM α-MSH or 1 nM CUV9900. Generation of hydrogen peroxide, representative of reactive oxygen species (ROS), was determined by measuring the luminescence of luminol at 0, 30, and 45 min after UV exposure. Triplicate dishes were included in each group, and duplicate samples from each dish were used for measurement of hydrogen peroxide at each time point. Each data point represents the mean of 6 determinations/group ±S.E.

melanocytic strain 10.3c = assay: as above; conditions: 1 nM, 105 mJ/cm^2 UV, 0, 30 and 45 minutes after UV
From the text: as §1, §2

[1] = system: lightly pigmented strain 1563c and strain 102b; assay: Ultrastructural visualization of DOPA-stained HM (electron microscopy); conditions: 0.1 nM or 1 nM CUV9900 or 1 nM MSH; strains 1563c and 102b
Experimental: (§3) With reference to Figs. 14 and 15, two melanocytic strains, a lightly pigmented strain 1563c of Fig. 14 and strain 102b of Fig. 15 were plated in 4-well chamber slides and treated […] with either 0.1 nM or 1 nM CUV9900 or 1 nM MSH for a total of 6 days. Cells were processed for electron microscopy in the presence or absence of histochemical reaction with DOPA. Microtome sections were analyzed in a JEOL JEM-1230 transmission electron microscope and photomicrographs (15,000 X) of the perinuclear area and dendrites were taken for each experimental group.

melanocyte strain 1513c = assay: Tyrosinase activity as a measure of stability / residual effect; conditions: strain 1513c; 1 nM peptide incubated 5-7 hours at 37 degrees Celsius
Experimental: To determine the residual effect of CUV9900, as compared to NDP-MSH and α-MSH, on tyrosinase activity, melanocytes were treated with either CUV9900 or NDP-MSH at the concentrations previously described for a total of 3 days. Tyrosinase activity was measured at the end of the 3 days of treatment, and 2 and 4 days after maintenance of the melanocytes in the complete absence of any treatment. With continued reference to Figs. 7, 8 and 9, to determine the stability of CUV9900 versus that of NDP-MSH and α-MSH, melanocytes were treated with 1 nM of each peptide, namely with CUV9900, NDP-MSH and α-MSH, for a total of 6 days, or with 1 nM peptides that were incubated for 5 hours at 37 °C prior to addition to the cultures, every other day, for a total of 6 days. Tyrosinase activity was measured at the end of treatment. In the experiments, cell number represents the mean percent of control of 3 determinations/ group ±SE, and tyrosinase activity data represent the mean percent of control of 6 determinations ±S.E. It should be noted that for the sake of reproducibility the experiment of strain 1513c of Fig. 9 was performed once more 6 months later than the experiment of Fig. 7. […] Melanocytes were treated for 3 days with the designated concentrations of CUV9900, NDP-MSH, or MSH, then maintained in absence of peptides for 4 days. Tyrosinase activity was determined 3 days after treatment. Comparison of stability of CUV9900, NDP-MSH and MSH was compared in 1513c, as shown in Fig. 7; the strain was treated for 6 days with 1 nM CUV9900, NDP-MSH or MSH with fresh medium and peptide replenished every 2 days. Melanocytes were treated according to the same experiment protocol but each peptide was incubated for 5-7 hours at 37 degrees Celsius. […] The assessment of tyrosinase was statistically different from control, as determined by ANOVA (p=<0.05).

melanocytes strain 105c = assay: cAMP levels, radioimmunoassay; conditions: 45 min, 0.1 mM IBMX
Experimental: Dose-response experiments were carried out on three melanocytic strains, namely strains 1513c, 1505b and 105c melanocytes were treated with 1 pM-10 nM CUV9900 or NDP-MSH, or with 0.1-10 nM MSH for 45 minutes in the presence of 0.1 mM isobutyl methylxanthine (IBMX). The results obtained from strain 1513c are shown in Fig. 3, the results obtained from strain 1505b are shown in Fig. 5a and the results obtained from strain 105c are shown in Fig. 5b. The strains 1505b and 1513c were obtained from the same human adult while the strain 105c was obtained from another human adult.
Cyclic AMP is the second messenger for the melanocortin-1 receptor, and assessment is usually performed indicating cellular activity reflective of melanogenesis. Cyclic AMP levels were determined using ^125I-labeled radioimmunoassay kit (Perkin Elmer, Waltham, MA), in human melanocytes that were treated with 0 (control), 0.1-10.0 nM α-MSH, or 0.001-10 nM NDP-MSH or 0.001-10.0 nM CUV 9900 for 45 min. in the presence of 0.1 mM IBMX, a phosphodiesterase inhibitor to prevent cAMP degradation. Triplicate wells were included in each group, and duplicate samples from each well were assayed for cAMP levels. Each data point is the mean percent of control of 6 determinations/group ±S.E.

[2] = system: melanocytic strains 1563c and 102b; assay: Ultrastructural visualization of DOPA-stained HM, electron microscopy; conditions: 0.1 nM or 1 nM CUV9900 or 1 nM MSH
Experimental: as §3

[3] = system: melanocytic strain 1505b and melanocytic strain 10.3c; assay: UV-induced generation of hydrogen peroxide, luminol luminescence; conditions: 1 nM; for UV-induced hydrogen peroxide generation: 105 mJ/cm^2 UV, 0, 30 and 45 minutes after UV irradiation
From the text: as §1, §2

| Substance | UV-induced hydrogen peroxide generation (melanocytic strain 1505b) | UV-induced hydrogen peroxide generation (melanocytic strain 10.3c) | melanosomes, electron microscopy [1] | effect of incubation of the peptide on stimulation of tyrosinase activity (melanocyte strain 1513c) | elevation of cAMP in comparison to NDP (melanocytes strain 105c; 0.01 nM and 0.1 nM) | cAMP compared with MSH (melanocytes strain 105c; 0.1 nM, 1 nM and 10 nM) | melanosomes in the perinuclear area and dendrites [2] | UV-induced hydrogen peroxide generation [3] | hydrogen peroxide generation in comparison with both NDP-MSH and MSH ([3]; at 45 minutes after irradiation) |
| --- | --- | --- | --- | --- | --- | --- | --- | --- | --- |
| Ac-Ser-Tyr-Ser-Met-Glu-His-Phe-Arg-Trp-Gly-Lys-Pro-Val-NH2 [alpha-MSH, reference compound] | significant reduction of UV-induced hydrogen peroxide generation | significant reduction of UV-induced hydrogen peroxide generation | increased mature (stage IV) melanosomes in the perinuclear area and more so in dendrites | totally abolished its effect on tyrosinase activity |  |  |  |  |  |
| Ac-Nle-Glu His-D-Phe-Arg-Trp-NH2 (SEQ ID NO: 1) (Ac-[Nle]EH[dF]RW-NH2; SMILES CCCC[C@H](NC(C)=O)C(=O)N[C@@H](CCC(=O)O)C(=O)N[C@@H](Cc1c[nH]cn1)C(=O)N[C@H](Cc1ccccc1)C(=O)N[C@@H](CCCNC(=N)N)C(=O)N[C@@H](Cc1c[nH]c2ccccc12)C(N)=O) [CUV9900] |  |  |  |  | less elevation of cAMP | significantly higher | increased mature (stage IV) melanosomes | significant reduction | lower hydrogen peroxide generation |
| Ac-Ser-Tyr-Ser-Met-Glu-His-Phe-Arg-Trp-Gly-Lys-Pro-Val-NH2 (SEQ ID NO: 3) [alpha-MSH, reference compound] |  |  |  |  |  |  | increased mature (stage IV) melanosomes | significant reduction |  |
